Where two headings read alike, the source gives them in different places.
Tests used:
[1] = tested on: Thrombocyte aggregation; test: Antithrombotic activity: collagen-induced thrombocyte aggregation in platelet-rich plasma after oral administration (Born and Cross); format: in vivo, rat; conditions: for inhibition at 10 mg/kg / inhibition at 5 mg/kg: po, read-out: Percentage inhibition of aggregation
Experimental: 1. Antithrombotic activity (see BORN and CROSS, J. Physiol. 170, 397 (1964)):
Groups of three male rats weighing about 500 g are given the test substances, suspended in 1% tylose (A and B) or in distilled water (C), in a volume of 0.2 ml per 100 g of the weight of the animal, by esophageal tube. Shortly before the blood samples are taken (1 hour after administration of the substance) the animals are anesthetised with sodium pentobarbital (50 mg/kg i.p.). After the abdomen has been opened up, the required quantity of blood is taken by puncturing the aorta.
The blood is treated with sodium citrate (0.2% final concentration) to prevent it coagulating. Since the aggregation before and after administration of the substance in rats cannot be measured in the same animal, sets of animals from which the plasma has been pooled are compared. In this way, multiple measurements can be made.
Thrombocyte aggregation is measured in platelet-rich plasma (PRP) (quantity of plasma for each test: 1 ml). In order to obtain the PRP, the blood is centrifuged for 10 minutes at 1,000 to 1,200 revolutions per minute (approx. 150 g). The low-platelet plasma for calibrating the aggregometer is obtained by centrifuging (4,000 rpm for 10 minutes).
The pattern of the decrease in optical density of the platelet suspension after the addition of collagen is measured photometrically and recorded. The height of the curve in mm measured at the moment of maximum light transmittance is the measurement of the intensity of aggregation. A 6-channel aggregometer is used for the measurements.
The quantity of collagen (2 to 5 μl/ml of plasma) is such that an irreversible reaction curve is obtained.
The sets of animals treated with the substance are compared with untreated control groups.

[2] = Tolerability: toxic side effects at the maximum dosages administered; format: in vivo
[3] = tested on: mouse; test: Approximate acute toxicity on the mouse after oral administration; format: in vivo; conditions: 250 mg/kg oral, group of 10 animals, observation period of 14 days
Experimental: The approximate acute toxicity of substance B is tested on the mouse after oral administration of a dosage of 250 mg/kg to a group of 10 animals.

[4] = 10 mg/kg p.o., rat, 1 hour after administration, collagen, control 130 (A), 110 (B)
[5] = maximum dosages administered (10 mg/kg p.o.)
[6] = 5 mg/kg p.o., rat, 1 hour after administration, collagen, control 108 (B), 113 (C)

Structure (SMILES)	Intensity of Aggregation, Height of curve (opt. density), Substance [1, 4]	inhibition at 10 mg/kg ([1]; Rattus norvegicus, 1 h)	toxic side effects [2, 5]	Intensity of Aggregation, Height of curve (opt. density), Substance [1, 6]	inhibition at 5 mg/kg ([1]; 5 mg/kg p.o., rat, 1 hour after administration, collagen)	toxic side effects ([2]; in vivo, po, 10 mg/kg)	inhibition at 5 mg/kg ([1]; Rattus norvegicus, 1 h)	Acute toxicity, deaths [3]
COc1cc2c(cc1OC)CC[N+](Cc1ccccc1Cl)=C2.O=S(=O)([O-])O [A, 2-(2-Chlorobenzyl)-6,7-dimethoxy-3,4-dihydro-isoquinolinium hydrogensulphate]	69 mm	47%	do not show any toxic side effects					
COc1cc2c(cc1OC)CC[N+](Cc1cc(OC)c(OC)c(OC)c1)=C2.[Cl-] [C, 2-(3,4,5-Trimethoxybenzyl)-6,7-dimethoxy-3,4-dihydro-isoquinolinium chloride]				10 mm	89%	do not show any toxic side effects		
Clc1ccccc1C[N+]1=Cc2ccccc2CC1.O=S(=O)([O-])O [B, 2-(2-Chlorobenzyl)-3,4-dihydro-isoquinolinium hydrogensulphate]	0 mm	100%	do not show any toxic side effects	0 mm			100%	None of the animals died

— patent US4678792A, “Quaternary 3,4-dihydro-isoquinolinium salts” (Dr. Karl Thomae GmbH, priority 1984, dated 1987)
